# Measured values from patent publication US10835540B2, “Pharmaceutical use” (Lucolas-M.D. Ltd., priority 2011, dated 2020).
# System: mastodynia
# Assay: Previous prescriptions for pre-menstrual breast pain (anamnesis, Example 8)
# Format: in vivo, human
# Settings: Example 8 patient; for effect of previous prescription on breast pain symptoms: 'The same applies' in b116 refers to 'basically without any effect'
# Text: Pre-menstrual syndrome with symptoms of strong pain in both breasts since puberty. Dynamic increase of the symptoms with extremely strong tactile sensitivity, strong sensation of swelling and tension with pain symptoms diffusely radiating into the chest and the arms, which becomes virtually unbearable until the beginning of the menstruation. Unable to work because of these conditions for 2-4 days per month since 3 years. Intimate touching not possible for 14 days per month due to the pathologic tactile hyper-sensitivity. Fading-away of the symptoms only 7-10 days after the beginning of the menstruation.
structure (smiles),measurement,setting,value
CC/C(=C(\c1ccccc1)c1ccc(OCCN(C)C)cc1)c1ccccc1 [Tamoxifen],effect on breast pain symptoms,20 mg,considerable alleviation of the symptoms
same,side-effects,"20 mg, mainly cardiovascular, led to quitting the therapy",uncontrolled increase of blood pressure
CC(C)C[C@H]1C(=O)N2CCC[C@H]2[C@]2(O)O[C@](NC(=O)[C@@H]3C=C4c5cccc6[nH]c(Br)c(c56)C[C@H]4N(C)C3)(C(C)C)C(=O)N12 [Bromocriptin],effect of previous prescription on breast pain symptoms,,The same applies
C#C[C@]1(O)CC[C@H]2[C@@H]3CCC4=Cc5oncc5C[C@]4(C)[C@H]3CC[C@@]21C [Danazol],effect of previous prescription on breast pain symptoms,,The same applies
